Active and inactive are the calls of the source. No cut-off for these calls is given here.
Legend:
Type in all cases: nucleic-acid assay
Nucleic Acid [1] = test: Binding affinity to AAATTT DNA assessed as change in melting temperature by thermal denaturation assay
Nucleic Acid [2] = test: Binding affinity to ATGCAT DNA assessed as change in melting temperature by thermal denaturation assay
Nucleic Acid [3] = test: Binding affinity to ACGCGT DNA assessed as change in melting temperature by thermal denaturation assay
Nucleic Acid [4] = test: Binding affinity to ACGCGT DNA by SPR assay
Nucleic Acid [5] = test: Binding affinity to ACGCGT DNA by ITC assay
Nucleic Acid [6] = test: Binding affinity to AAATTT DNA by SPR assay
Nucleic Acid [7] = test: Binding affinity to ACATGT DNA by SPR assay

ΔTm (Nucleic Acid [1]) | ΔTm (Nucleic Acid [2]) | ΔTm (Nucleic Acid [3]) | Ke (Nucleic Acid [4]) | Activity (Nucleic Acid [5]) | Ke (Nucleic Acid [6]) | Ke (Nucleic Acid [7]) | SMILES
10 °C | 24 °C | > 24 °C | 2.4 ×10⁸ /M | Active |  |  | CN(C)CCNC(=O)c1nc(NC(=O)c2cc(NC(=O)c3nc(NC=O)cn3C)cn2CCCN)cn1C
1 °C |  | 7.8 °C | 1.9 ×10⁸ /M | Active | 5.3 ×10⁴ /M |  | CN(C)CCNC(=O)c1nc(NC(=O)c2cc(NC(=O)c3nc(NC=O)cn3C)cn2C)cn1C
11 °C | 20 °C | > 20 °C | 2.3 ×10⁷ /M | Active | 2.2 ×10⁶ /M | 3.7 ×10⁶ /M | CN(C)CCNC(=O)c1nc(NC(=O)c2cc(NC(=O)c3nc(NC=O)cn3CCCN)cn2C)cn1C
